Test results as given in patent US20140243334A1, “SUBSTITUTED HYDOXAMIC ACIDS AND USES THEREOF” (Millennium Pharmaceuticals, Inc., priority 2010, published 2014).

biological target: T1, purified human HDAC6 (Homo sapiens, UniProt Q9UBN7); experiment: HDAC6 Enzyme Assay; format: biochemical; details: HDAC6 inhibition at a compound concentration of 0.412 μM; read-out: Percent Inhibition at 0.412 μM
T1 construct: purchased BPS Bioscience 5006
T1 sequence (Q9UBN7 1-1215): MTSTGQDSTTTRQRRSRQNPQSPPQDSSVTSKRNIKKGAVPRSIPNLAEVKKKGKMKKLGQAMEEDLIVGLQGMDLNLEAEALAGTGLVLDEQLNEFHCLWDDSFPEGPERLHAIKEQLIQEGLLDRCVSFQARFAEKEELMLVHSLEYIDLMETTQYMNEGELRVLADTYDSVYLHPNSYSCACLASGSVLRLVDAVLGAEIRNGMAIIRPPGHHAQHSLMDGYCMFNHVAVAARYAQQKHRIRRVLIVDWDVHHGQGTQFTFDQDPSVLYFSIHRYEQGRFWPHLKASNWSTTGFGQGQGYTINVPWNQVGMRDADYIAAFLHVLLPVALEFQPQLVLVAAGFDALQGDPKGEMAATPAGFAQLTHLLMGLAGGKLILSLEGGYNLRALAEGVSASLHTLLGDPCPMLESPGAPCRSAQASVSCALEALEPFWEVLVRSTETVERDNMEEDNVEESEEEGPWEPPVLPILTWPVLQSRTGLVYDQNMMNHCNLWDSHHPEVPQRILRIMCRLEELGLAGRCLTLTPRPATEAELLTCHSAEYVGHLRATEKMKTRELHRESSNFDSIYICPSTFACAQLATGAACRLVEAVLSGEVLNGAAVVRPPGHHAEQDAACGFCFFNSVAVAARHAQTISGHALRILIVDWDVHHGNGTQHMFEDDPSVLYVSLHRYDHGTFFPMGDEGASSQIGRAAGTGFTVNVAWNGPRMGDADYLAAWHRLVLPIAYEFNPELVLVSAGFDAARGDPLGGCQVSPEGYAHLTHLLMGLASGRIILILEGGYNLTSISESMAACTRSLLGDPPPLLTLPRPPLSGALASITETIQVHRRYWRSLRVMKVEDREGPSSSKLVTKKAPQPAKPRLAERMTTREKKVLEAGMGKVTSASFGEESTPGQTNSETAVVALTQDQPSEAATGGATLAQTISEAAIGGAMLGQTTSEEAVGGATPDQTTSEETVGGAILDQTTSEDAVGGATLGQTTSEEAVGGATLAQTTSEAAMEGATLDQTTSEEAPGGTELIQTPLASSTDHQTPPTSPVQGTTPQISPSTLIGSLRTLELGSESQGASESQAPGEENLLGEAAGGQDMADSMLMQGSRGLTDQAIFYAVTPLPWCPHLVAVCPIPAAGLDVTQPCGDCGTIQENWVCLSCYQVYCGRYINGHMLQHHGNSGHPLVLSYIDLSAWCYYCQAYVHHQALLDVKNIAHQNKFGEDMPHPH
Method: To measure the inhibition of HDAC6 activity, purified human HDAC6 (BPS Bioscience; Cat. No. 5006) is incubated with substrate Ac-Arg-Gly-Lys(Ac)-AMC peptide (Bachem Biosciences; Cat. No. I-1925) for 1 hour at 30° C. in the presence of test compounds or vehicle DMSO control. The reaction is stopped with the HDAC inhibitor trichostatin A (Sigma; Cat. No. T8552) and the amount of Arg-Gly-Lys-AMC generated is quantitated by digestion with trypsin (Sigma; Cat. No. T1426) and subsequent measurement of the amount of AMC released using a fluorescent plate reader (Pherastar; BMG Technologies) set at Ex 340 nm and Em 460 nm. Concentration response curves are generated by calculating the fluorescence increase in test compound-treated samples relative to DMSO-treated controls, and enzyme inhibition (IC50) values are determined from those curves.

| inhibition at 0.412 µM [%] | Structure (SMILES) |
| --- | --- |
| 83 | O=C(NO)C1CCc2ccc(-c3cccc([N+](=O)[O-])c3)cc2C1 (stereo not shown) [Compound I-106, N-hydroxy-7-(3-nitrophenyl)-1,2,3,4-tetrahydronaphthalene-2-carboxamide] |
| 76 | O=C(NO)C1CCc2ccc(Oc3cccc(NCc4ccccc4)c3)cc2C1 (stereo not shown) [Compound I-59, 7-[3-(benzylamino)phenoxy]-N-hydroxy-1,2,3,4-tetrahydronaphthalene-2-carboxamide] |
| 61 | O=C(NO)C1CCc2ccc(Oc3ccncc3)cc2C1 (stereo not shown) [Compound I-12, N-hydroxy-7-(pyridin-4-yloxy)-1,2,3,4-tetrahydronaphthalene-2-carboxamide] |
| 66 | CC(C)Oc1ccc(-c2ccc3c(c2)CC(C(=O)NO)CC3)cc1 (stereo not shown) [Compound I-89, N-hydroxy-7-(4-isopropoxyphenyl)-1,2,3,4-tetrahydronaphthalene-2-carboxamide] |
| 67 | CN(C)c1ccc(-c2ccc3c(c2)CC(C(=O)NO)CC3)cc1 (stereo not shown) [Compound I-92, 7-[4-(dimethylamino)phenyl]-N-hydroxy-1,2,3,4-tetrahydronaphthalene-2-carboxamide] |
| 8 | COc1ccc2c(c1)CC(C(=O)NO)CC2 (stereo not shown) [Compound I-1, N-hydroxy-7-methoxy-1,2,3,4-tetrahydronaphthalene-2-carboxamide] |
| 76 | COc1ccccc1-c1ccc2c(c1)CC(C(=O)NO)CC2 (stereo not shown) [Compound I-68, N-hydroxy-7-(2-methoxyphenyl)-1,2,3,4-tetrahydronaphthalene-2-carboxamide] |
| 53 | O=C(NO)C1CCc2ccc(OCc3ccccc3)cc2C1 (stereo not shown) [Compound I-6, 7-(benzyloxy)-N-hydroxy-1,2,3,4-tetrahydronaphthalene-2-carboxamide] |
| 76 | Cc1cc(F)ccc1-c1ccc2c(c1)CC(C(=O)NO)CC2 (stereo not shown) [Compound I-102, 7-(4-fluoro-2-methylphenyl)-N-hydroxy-1,2,3,4-tetrahydronaphthalene-2-carboxamide] |
| 79 | CN(C)S(=O)(=O)c1cccc(-c2ccc3c(c2)CC(C(=O)NO)CC3)c1 (stereo not shown) [Compound I-93, 7-{3-[(dimethylamino)sulfonyl]phenyl}-N-hydroxy-1,2,3,4-tetrahydronaphthalene-2-carboxamide] |
| 71 | O=C(NO)C1CCc2ccc(Nc3cccc(Cl)c3)cc2C1 (stereo not shown) [Compound I-26, 7-[(3-chlorophenyl)amino]-N-hydroxy-1,2,3,4-tetrahydronaphthalene-2-carboxamide] |
| 75 | O=C(NO)C1CCc2ccc(-c3cccnc3)cc2C1 (stereo not shown) [Compound I-60, N-hydroxy-7-pyridin-3-yl-1,2,3,4-tetrahydronaphthalene-2-carboxamide] |
| 76 | COc1ccc2cc(-c3ccc4c(c3)CC(C(=O)NO)CC4)ccc2c1 (stereo not shown) [Compound I-114, N-hydroxy-6′-methoxy-5,6,7,8-tetrahydro-2,2′-binaphthalene-7-carboxamide] |
| 74 | CC(C)c1cccc(Oc2ccc3c(c2)CC(C(=O)NO)CC3)c1 (stereo not shown) [Compound I-47, N-hydroxy-7-(3-isopropylphenoxy)-1,2,3,4-tetrahydronaphthalene-2-carboxamide] |

The next lines start with the molecule.

| Structure (SMILES) | inhibition at 0.412 µM [%] |
| --- | --- |
| O=C(NO)C1CCc2ccc(-c3ccc(OCc4ccccc4)cc3)cc2C1 (stereo not shown) [Compound I-121, 7-[4-(benzyloxy)phenyl]-N-hydroxy-1,2,3,4-tetrahydronaphthalene-2-carboxamide] | 54 |
| O=C(NO)C1CCc2cccc(Oc3ccnc(NC(=O)C4CC4)c3)c2C1 (stereo not shown) [Compound I-16, 8-({2-[(cyclopropylcarbonyl)amino]pyridin-4-yl}oxy)-N-hydroxy-1,2,3,4-tetrahydronaphthalene-2-carboxamide] | 13 |
| CC(C)COc1ccc2c(c1)CC(C(=O)NO)CC2 (stereo not shown) [Compound I-7, N-hydroxy-7-isobutoxy-1,2,3,4-tetrahydronaphthalene-2-carboxamide] | 57 |
| O=C1CCc2c(Oc3ccc4c(c3)CCC(C(=O)NO)C4)ccnc2N1 (stereo not shown) [Compound I-14, N-hydroxy-6-[(7-oxo-5,6,7,8-tetrahydro-1,8-naphthyridin-4-yl)oxy]-1,2,3,4-tetrahydronaphthalene-2-carboxamide] | 67 |
| O=C(NO)C1CCc2ccc(-c3ccc(Cl)cc3)cc2C1 (stereo not shown) [Compound I-71, 7-(4-chlorophenyl)-N-hydroxy-1,2,3,4-tetrahydronaphthalene-2-carboxamide] | 74 |
| O=C(NO)C1CCc2ccc(-c3ccncc3)cc2C1 (stereo not shown) [Compound I-17, N-hydroxy-7-pyridin-4-yl-1,2,3,4-tetrahydronaphthalene-2-carboxamide] | 60 |
| O=C(NC1CC1)c1cccc(-c2ccc3c(c2)CC(C(=O)NO)CC3)c1 (stereo not shown) [Compound I-51, 7-{3-[(cyclopropylamino)carbonyl]phenyl}-N-hydroxy-1,2,3,4-tetrahydronaphthalene-2-carboxamide] | 88 |
| O=C(NO)C1CCc2ccc(-c3cccc(OCc4ccccc4)c3)cc2C1 (stereo not shown) [Compound I-48, 7-[3-(benzyloxy)phenyl]-N-hydroxy-1,2,3,4-tetrahydronaphthalene-2-carboxamide] | 73 |
| O=C(NO)C1CCc2ccc(-c3ccc(C(F)(F)F)cc3)cc2C1 (stereo not shown) [Compound I-112, N-hydroxy-7-[4-(trifluoromethyl)phenyl]-1,2,3,4-tetrahydronaphthalene-2-carboxamide] | 58 |
| O=C(NO)C1CCc2ccc(Oc3ccc(NCc4ccc(Cl)cc4)cc3)cc2C1 (stereo not shown) [Compound I-73, 7-{4-[(4-chlorobenzyl)amino]phenoxy}-N-hydroxy-1,2,3,4-tetrahydronaphthalene-2-carboxamide] | 64 |
| O=C(NO)C1CCc2ccc(CCc3ccccc3)cc2C1 (stereo not shown) [Compound I-36, N-hydroxy-7-(2-phenylethyl)-1,2,3,4-tetrahydronaphthalene-2-carboxamide] | 37 |
| COc1ccccc1Nc1ccc2c(c1)CCC(C(=O)NO)C2 (stereo not shown) [Compound I-84, N-hydroxy-6-[(2-methoxyphenyl)amino]-1,2,3,4-tetrahydronaphthalene-2-carboxamide] | 38 |
| NC(=O)c1ccc2c(c1)CC(C(=O)NO)CC2 (stereo not shown) [Compound I-39, N^2-hydroxy-1,2,3,4-tetrahydronaphthalene-2,7-dicarboxamide] | 76 |
| CC(C)(C)NC(=O)c1ccc2c(c1)CC(C(=O)NO)CC2 (stereo not shown) [Compound I-45, N^7-(tert-butyl)-N^2-hydroxy-1,2,3,4-tetrahydronaphthalene-2,7-dicarboxamide] | 79 |
| COc1ccc(-c2ccc3c(c2)CC(C(=O)NO)CC3)cc1OC (stereo not shown) [Compound I-109, 7-(3,4-dimethoxyphenyl)-N-hydroxy-1,2,3,4-tetrahydronaphthalene-2-carboxamide] | 82 |
| N#Cc1ccc2c(c1)CC(C(=O)NO)CC2 (stereo not shown) [Compound I-42, 7-cyano-N-hydroxy-1,2,3,4-tetrahydronaphthalene-2-carboxamide] | 62 |
| CNC(=O)Nc1cccc(Oc2ccc3c(c2)CC(C(=O)NO)CC3)c1 (stereo not shown) [Compound I-57, N-hydroxy-7-(3-{[(methylamino)carbonyl]amino}phenoxy)-1,2,3,4-tetrahydronaphthalene-2-carboxamide] | 73 |
